Test results from ChEMBL document CHEMBL3792294, “Efficient synthesis of new 2,3-dihydrooxazole-spirooxindoles hybrids as antimicrobial agents” (2016).
In brackets after ≈: the same amount, converted by molar mass. Activity calls are given as the source filed them. The calls are words filed in the database; no cut-off is given here.

What was measured:
Format in all cases: functional
[1] = system: Bacillus subtilis; assay: Antibacterial activity against Bacillus subtilis after 24 hrs by spectrophotometry
[2] = system: Enterobacter; assay: Antibacterial activity against Enterobacter after 24 hrs by spectrophotometry
[3] = system: Klebsiella pneumoniae; assay: Antibacterial activity against Klebsiella pneumoniae after 24 hrs by spectrophotometry
[4] = system: Pyricularia oryzae; assay: Antifungal activity against Pyricularia oryzae after 48 hrs by agar diffusion method
[5] = system: Pseudoperonospora cubensis; assay: Antifungal activity against Pseudoperonospora cubensis after 72 hrs by agar diffusion method
[6] = system: Podosphaera fuliginea; assay: Antifungal activity against Sphaerotheca fuliginea after 72 hrs by agar diffusion method
[7] = system: Phytophthora infestans; assay: Antifungal activity against Phytophthora infestans after 72 hrs by agar diffusion method

Row | Compound | MBC [1] | MIC [1] | MBC [2] | MIC [2] | MBC [3] | MIC [3] | MIC [4] | MIC [5] | MIC [6] | MIC [7]
1 | O=C(NN1C(c2ccccc2)=C(c2ccccc2)OC12C(=O)Nc1ccccc12)c1ccc(Cl)cc1 (stereo not given) | 100 µg/mL (≈ 202 µM) | 50 µg/mL (≈ 101 µM) | 50 µg/mL (≈ 101 µM) | 30 µg/mL (≈ 60.7 µM) | 100 µg/mL (≈ 202 µM) | 50 µg/mL (≈ 101 µM) | 14 µg/mL (≈ 28.3 µM) | 12 µg/mL (≈ 24.3 µM) | 12 µg/mL (≈ 24.3 µM) | 14 µg/mL (≈ 28.3 µM)
2 | Cc1cccc(OCC(=O)NN2C(c3ccccc3)=C(c3ccccc3)OC23C(=O)Nc2ccccc23)c1 (stereo not given) | inactive | inactive | 100 µg/mL (≈ 199 µM) | 40 µg/mL (≈ 79.4 µM) | inactive | inactive | 20 µg/mL (≈ 39.7 µM) | inactive | inactive | 12 µg/mL (≈ 23.8 µM)
3 | O=C(NN1C(c2ccccc2)=C(c2ccccc2)OC12C(=O)Nc1ccccc12)c1ccccc1O (stereo not given) | 100 µg/mL (≈ 210 µM) | 70 µg/mL (≈ 147 µM) | 50 µg/mL (≈ 105 µM) | 40 µg/mL (≈ 84.1 µM) | inactive | inactive | 16 µg/mL (≈ 33.6 µM) | 12 µg/mL (≈ 25.2 µM) | 12 µg/mL (≈ 25.2 µM) | 14 µg/mL (≈ 29.4 µM)
4 | O=C(COc1ccccc1)NN1C(c2ccccc2)=C(c2ccccc2)OC12C(=O)Nc1ccccc12 (stereo not given) | 100 µg/mL (≈ 204 µM) | 50 µg/mL (≈ 102 µM) | 100 µg/mL (≈ 204 µM) | 40 µg/mL (≈ 81.7 µM) | inactive | inactive | 15 µg/mL (≈ 30.6 µM) | 12 µg/mL (≈ 24.5 µM) | 16 µg/mL (≈ 32.7 µM) | 14 µg/mL (≈ 28.6 µM)
5 | O=C(NN1C(c2ccccc2)=C(c2ccccc2)OC12C(=O)Nc1ccccc12)c1ccc([N+](=O)[O-])cc1 (stereo not given) | 50 µg/mL (≈ 99.1 µM) | 30 µg/mL (≈ 59.5 µM) | 50 µg/mL (≈ 99.1 µM) | 30 µg/mL (≈ 59.5 µM) | inactive | inactive | 16 µg/mL (≈ 31.7 µM) | 18 µg/mL (≈ 35.7 µM) | 12 µg/mL (≈ 23.8 µM) | 12 µg/mL (≈ 23.8 µM)
6 | NYSTATIN | – | – | – | – | – | – | 20 µg/mL | 18 µg/mL | 18 µg/mL | 18 µg/mL
7 | O=C(COc1ccc(Cl)cc1Cl)NN1C(c2ccccc2)=C(c2ccccc2)OC12C(=O)Nc1ccccc12 (stereo not given) | 50 µg/mL (≈ 89.5 µM) | 25 µg/mL (≈ 44.8 µM) | 100 µg/mL (≈ 179 µM) | 40 µg/mL (≈ 71.6 µM) | 50 µg/mL (≈ 89.5 µM) | 25 µg/mL (≈ 44.8 µM) | inactive | inactive | 14 µg/mL (≈ 25.1 µM) | inactive
8 | O=C(O)c1cn(C2CC2)c2cc(N3CCNCC3)c(F)cc2c1=O [CIPROFLOXACIN] | 12.5 µg/mL (≈ 37.7 µM) | 6.25 µg/mL (≈ 18.9 µM) | 25 µg/mL (≈ 75.4 µM) | 10.2 µg/mL (≈ 30.9 µM) | 25 µg/mL (≈ 75.4 µM) | 6.25 µg/mL (≈ 18.9 µM) | – | – | – | –
9 | Cc1ccccc1OCC(=O)NN1C(c2ccccc2)=C(c2ccccc2)OC12C(=O)Nc1ccccc12 (stereo not given) | inactive | inactive | 50 µg/mL (≈ 99.3 µM) | 30 µg/mL (≈ 59.6 µM) | inactive | inactive | 17 µg/mL (≈ 33.8 µM) | 8 µg/mL (≈ 15.9 µM) | 12 µg/mL (≈ 23.8 µM) | 18 µg/mL (≈ 35.7 µM)
10 | Cc1ccc(OCC(=O)NN2C(c3ccccc3)=C(c3ccccc3)OC23C(=O)Nc2ccccc23)cc1 (stereo not given) | inactive | inactive | 100 µg/mL (≈ 199 µM) | 50 µg/mL (≈ 99.3 µM) | inactive | inactive | 8 µg/mL (≈ 15.9 µM) | 12 µg/mL (≈ 23.8 µM) | 12 µg/mL (≈ 23.8 µM) | 14 µg/mL (≈ 27.8 µM)
11 | COc1ccc(C(=O)NN2C(c3ccccc3)=C(c3ccccc3)OC23C(=O)Nc2ccccc23)cc1 (stereo not given) | 200 µg/mL (≈ 409 µM) | 100 µg/mL (≈ 204 µM) | 100 µg/mL (≈ 204 µM) | 50 µg/mL (≈ 102 µM) | inactive | inactive | 12 µg/mL (≈ 24.5 µM) | 14 µg/mL (≈ 28.6 µM) | 8 µg/mL (≈ 16.3 µM) | 14 µg/mL (≈ 28.6 µM)
